The term IC50 denotes the concentration that gives 50% inhibition.

Experimental findings from patent US20240043420A1, “7-AZAINDOLE COMPOUNDS FOR INHIBITION OF BCR-ABL TYROSINE KINASES” (EnLiven Therapeutics, Inc., priority 2020, published 2024) are described below.

Molecules are shown by their SMILES. Some results are limits rather than exact numbers.

The test system of one experiment is K562 cells. The experiment in a line: K562 cell proliferation assay (CellTiter-Glo). Format: cell-based. Particulars: Homo sapiens, K562, 72 h, CellTiter-Glo viability, read-out: Cell Line (IC50, nM) K562. The procedure:
(§1) K562 and HL60 cells, cultured in Iscove's Modified Dulbecco's Media (IMDM) supplemented with 10% FBS, were harvested at 50-80% confluency and plated at 2,000 cells per well (K562) or 1,500 cells per well (HL60) in 384-well tissue culture plates. A subset of wells contained media only (low control, LC). Compounds were serially diluted in DMSO. 40 nL of compound or DMSO only (high control, HC) were added to each well using an Echo 550 liquid handler (Labcyte). The plates were placed in a 37° C. incubator with 5% CO2 for 72 hours. Cell viability was measured using a CellTiter-Glo luminescent cell viability assay (Promega), which allows for relative quantification of metabolically active cells by luminescence-based measurements of intracellular ATP concentrations. Briefly, plates were removed from the incubator and equilibrated for 15 minutes at room temperature prior to the addition of 40 μL of CellTiter-Glo reagent. Plates were then incubated for 30 minutes at room temperature. Luminescence was measured using an EnSpire plate reader (Perkin Elmer). As noted above, luminescence values from wells with DMSO only or media without cells were used as high and low controls (HC and LC), respectively. Normalized percent viability was calculated as follows: percent viability=100×(Lumsample−LumLC)/(LumHC−LumLC).
On the technique in general: Cellular ATP, detected with luciferase, serves as a proxy for viable cell number.

A further experiment deals with ABL1 (T315I) (Homo sapiens, UniProt P00519, T315I). The experiment in a line: Luminescence-based ABL kinase assay (ADP-Glo, 300 μM ATP), T315I mutant. The experiment is classed as biochemical. The method in brief:
(§2)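 ABL1 (3.325 nM in the enzyme solution) was preincubated with compound for 30 min at RT in HEPES pH 7.5 buffer with MgCl2, EGTA, DTT, BSA and Brij-35. Adding Peptide 2 and ATP (6 μM and 1.2 mM in the start solution) began a 90 min RT reaction. ADP-Glo luminescence gave % activity and IC50.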
A general note: ADP-Glo first removes unused ATP, then detects ADP through luciferase.

The next experiment concerns the target T1, ABL1 (Homo sapiens, UniProt P00519).
T1 construct: purchased Carna Biosciences
The experiment in a line: Luminescence-based ABL kinase assay (ADP-Glo, 300 μM ATP). The experiment is classed as biochemical. In a few lines:
as §2

The subject of a further experiment is HL60 cells. Description: HL60 cell proliferation assay (CellTiter-Glo). The experiment is classed as cell-based. The settings on record: Homo sapiens, HL-60, 72 h, CellTiter-Glo viability, read-out: Cell Line (IC50, nM) HL60. How it is done: as §1

Take `COc1cc2cc[nH]c2cc1-c1c[nH]c2nc(NC(=O)C3CC3)ccc12` [Compound 17, N-[3-(5-methoxy-1H-indol-6-yl)-1H-pyrrolo[2,3-b]pyridin-6-yl]cyclopropanecarboxamide]: the half-inhibitory concentration (IC50) in the experiment on K562 cells was 229 nM; against ABL1 (T315I), 28.6 nM; against ABL1, 55.1 nM; in the experiment on HL60 cells it was greater than 10000 nM.

In the case of `O=C(Nc1ccc2c(-c3ccc4[nH]cnc4c3)c[nH]c2n1)C1CC1` [Compound 19, N-[3-(1H-1,3-benzodiazol-5-yl)-1H-pyrrolo[2,3-b]pyridin-6-yl]cyclopropanecarboxamide], the half-maximal inhibitory concentration (IC50) in the experiment with K562 cells is 147 nM; at ABL1 (T315I), 4.57 nM; against ABL1, 11.2 nM; with HL60 cells it was 287 nM.

As to `O=C(Nc1ccc2c(-c3ccc4[nH]ncc4c3)c[nH]c2n1)C1CC1` [Compound 21, N-(3-(1H-indazol-5-yl)-1H-pyrrolo[2,3-b]pyridin-6-yl)cyclopropanecarboxamide], the IC50 with K562 cells was 286 nM; against ABL1 (T315I) it was 8.74 nM; against ABL1 it was 94.8 nM; in the experiment with HL60 cells, 1570 nM.

On to `COc1cccc(F)c1-c1c[nH]c2nc(NC(=O)[C@H]3C[C@H]3F)ccc12` [Compound 22, (1R,2R)-2-fluoro-N-[3-(2-fluoro-6-methoxyphenyl)-1H-pyrrolo[2,3-b]pyridin-6-yl]cyclopropane-1-carboxamide], for which the IC50 with K562 cells was 421 nM; on ABL1 (T315I), 7.17 nM; on ABL1, 78.9 nM; in the experiment on HL60 cells, greater than 10000 nM.

Turning to `O=C(Nc1ccc2c(-c3ccc4[nH]cnc4c3)c[nH]c2n1)[C@@H]1C[C@@H]1F` [Compound 28, (1S,2S)—N-[3-(1H-1,3-benzodiazol-5-yl)-1H-pyrrolo[2,3-b]pyridin-6-yl]-2-fluorocyclopropane-1-carboxamide], the concentration for half-maximal inhibition (IC50) in the experiment on K562 cells was determined as 62.1 nM; against ABL1 (T315I) it was 2.84 nM; against ABL1, 7.58 nM; in the experiment with HL60 cells, 385 nM.

`Cc1nc2cc(-c3c[nH]c4nc(NC(=O)C5CC5)ccc34)ccc2[nH]1` [Compound 29, N-(3-(2-methyl-1H-benzo[d]imidazol-5-yl)-1H-pyrrolo[2,3-b]pyridin-6-yl)cyclopropanecarboxamide]: the half-inhibitory concentration (IC50) in the experiment on K562 cells is 454 nM; on ABL1 (T315I), 10.5 nM; on ABL1, 41.8 nM; with HL60 cells it was 470 nM.

As to `CNc1ncccc1-c1c[nH]c2nc(NC(=O)C3CC3)ccc12` [Compound 37, N-[3-[2-(methylamino)pyridin-3-yl]-1H-pyrrolo[2,3-b]pyridin-6-yl]cyclopropanecarboxamide], the half-inhibitory concentration (IC50) with K562 cells was 231 nM; against ABL1 (T315I), 103 nM; at ABL1 it was 46.1 nM; in the experiment with HL60 cells it was greater than 10000 nM.

For the compound `COc1ccccc1-c1c[nH]c2nc(NC(=O)NCCN3CCOCC3)ccc12` [Compound 43, 3-[3-(2-methoxyphenyl)-1H-pyrrolo[2,3-b]pyridin-6-yl]-1-[2-(morpholin-4-yl)ethyl]urea], the IC50 with K562 cells was 779 nM; at ABL1 (T315I), 15.6 nM; against ABL1, 91.1 nM; with HL60 cells, greater than 10000 nM.

With `O=C(Nc1ccc2c(-c3cccnc3OC(F)F)c[nH]c2n1)C1CC1` [Compound 48, N-[3-[2-(difluoromethoxy)pyridin-3-yl]-1H-pyrrolo[2,3-b]pyridin-6-yl]cyclopropanecarboxamide], the half-maximal inhibitory concentration (IC50) turned out to be 777 nM with K562 cells, 244 nM on ABL1 (T315I), 94.9 nM at ABL1 and 9210 nM with HL60 cells.

As to `COc1nc2cn[nH]c2cc1-c1c[nH]c2nc(NC(=O)C3CC3)ccc12` [Compound 60, N-(3-[5-methoxy-1H-pyrazolo[4,3-b]pyridin-6-yl]-1H-pyrrolo[2,3-b]pyridin-6-yl)cyclopropanecarboxamide], the 50% inhibitory concentration (IC50) in the experiment on K562 cells was 5170 nM; against ABL1 (T315I) it was 417 nM; on ABL1 it was 218 nM; with HL60 cells, greater than 10000 nM.

For `CCOc1ncccc1-c1n[nH]c2nc(NC(=O)[C@@H]3C[C@@H]3F)ccc12` [Compound 64, (1S,2S)—N-[3-(2-ethoxypyridin-3-yl)-1H-pyrazolo[3,4-b]pyridin-6-yl]-2-fluorocyclopropane-1-carboxamide], the IC50 in the experiment on K562 cells was 610 nM; at ABL1 (T315I) it was 140 nM; against ABL1, 56.9 nM; in the experiment with HL60 cells, greater than 10000 nM.

Take `CCOc1cccc(F)c1-c1n[nH]c2nc(NC(=O)[C@@H]3C[C@@H]3F)ccc12` [Compound 67, (1S,2S)—N-(3-(2-ethoxy-6-fluorophenyl)-1H-pyrazolo[3,4-b]pyridin-6-yl)-2-fluorocyclopropane-1-carboxamide]: the concentration for half-maximal inhibition (IC50) in the experiment with K562 cells was 1140 nM; against ABL1 (T315I), 37.7 nM; on ABL1 it was 157 nM; in the experiment on HL60 cells, greater than 10000 nM.

In the case of `COc1ncccc1-c1c(F)[nH]c2nc(NC(=O)[C@@H]3C[C@@H]3F)ccc12` [Compound 68, (1S,2S)-2-fluoro-N-[2-fluoro-3-(2-methoxypyridin-3-yl)-1H-pyrrolo[2,3-b]pyridin-6-yl]cyclopropane-1-carboxamide], the IC50 was 607 nM with K562 cells, 19.2 nM on ABL1 (T315I), 78.2 nM against ABL1 and 3690 nM in the experiment on HL60 cells.

On to `O=C(Nc1ccc2c(-c3cccnc3OC3CC3)c[nH]c2n1)[C@@H]1C[C@@H]1F` [Compound 69, (1S,2S)—N-[3-(2-cyclopropoxypyridin-3-yl)-1H-pyrrolo[2,3-b]pyridin-6-yl]-2-fluorocyclopropane-1-carboxamide], for which the IC50 in the experiment on K562 cells is 162 nM; against ABL1 (T315I) it was 27.4 nM; on ABL1 it was 27.6 nM; in the experiment with HL60 cells it was greater than 10000 nM.

For `O=C(Nc1ccc2c(-c3cccnc3OC(F)F)c[nH]c2n1)[C@@H]1C[C@@H]1F` [Compound 70, (1S,2S)—N-[3-[2-(difluoromethoxy)pyridin-3-yl]-1H-pyrrolo[2,3-b]pyridin-6-yl]-2-fluorocyclopropane-1-carboxamide], the IC50 in the experiment on K562 cells is 312 nM; against ABL1 (T315I), 140 nM; at ABL1 it was 60.3 nM; with HL60 cells it was greater than 10000 nM.

Consider `O=C(Nc1ccc2c(-c3ccc4nccn4c3)c[nH]c2n1)[C@@H]1C[C@@H]1F` [Compound 71, (1S,2S)-2-fluoro-N-(3-[imidazo[1,2-a]pyridin-6-yl]-1H-pyrrolo[2,3-b]pyridin-6-yl)cyclopropane-1-carboxamide], for which the IC50 with K562 cells was found to be 292 nM; against ABL1 (T315I), 55.2 nM; on ABL1, 48 nM; with HL60 cells, 334 nM.

Consider `COc1cc2nccn2cc1-c1c[nH]c2nc(NC(=O)[C@@H]3C[C@@H]3F)ccc12` [Compound 72, (1S,2S)-2-fluoro-N-(3-(7-methoxyimidazo[1,2-a]pyridin-6-yl)-1H-pyrrolo[2,3-b]pyridin-6-yl)cyclopropane-1-carboxamide], for which the 50% inhibitory concentration (IC50) was 1020 nM with K562 cells, 162 nM against ABL1 (T315I), 70.2 nM against ABL1 and greater than 10000 nM with HL60 cells.

For the compound `COc1cccc(OC)c1-c1n[nH]c2nc(NC(=O)[C@@H]3C[C@@H]3F)ccc12` [Compound 78, (1S,2S)—N-(3-(2,6-dimethoxyphenyl)-1H-pyrazolo[3,4-b]pyridin-6-yl)-2-fluorocyclopropane-1-carboxamide], the IC50 was 94.8 nM in the experiment on K562 cells, 139 nM on ABL1 (T315I), 17.8 nM on ABL1 and greater than 10000 nM in the experiment with HL60 cells.

Take `COc1ccc(F)cc1-c1n[nH]c2nc(NC(=O)NCCN3CCN(C)CC3)ccc12` [Compound 79, 3-[3-(5-fluoro-2-methoxyphenyl)-1H-pyrazolo[3,4-b]pyridin-6-yl]-1-[2-(4-methylpiperazin-1-yl)ethyl]urea]: the IC50 in the experiment on K562 cells was 719 nM; on ABL1 (T315I) it was 108 nM; on ABL1, 143 nM; with HL60 cells it was greater than 10000 nM.

With `COc1c(-c2c[nH]c3nc(NC(=O)[C@@H]4C[C@@H]4F)ccc23)ccc2cn[nH]c12` [Compound 81, (1S,2S)-2-fluoro-N-(3-(7-methoxy-1H-indazol-6-yl)-1H-pyrrolo[2,3-b]pyridin-6-yl)cyclopropane-1-carboxamide], the concentration for half-maximal inhibition (IC50) with K562 cells was 96.2 nM; against ABL1 (T315I), 12.9 nM; against ABL1 it was 12.2 nM; with HL60 cells, greater than 10000 nM.

In the case of `COc1nc2[nH]cnc2cc1-c1c[nH]c2nc(NC(=O)[C@@H]3C[C@@H]3F)ccc12` [Compound 83, (1S,2S)-2-fluoro-N-(3-[5-methoxy-3H-imidazo[4,5-b]pyridin-6-yl]-1H-pyrrolo[2,3-b]pyridin-6-yl)cyclopropane-1-carboxamide], the IC50 with K562 cells was 48.8 nM; on ABL1 (T315I), 1.74 nM; against ABL1, 1.52 nM; in the experiment with HL60 cells, greater than 10000 nM.
